We go through 15 compounds from PubChem BioAssay (NCI).

Among the test systems are ACHN renal; HT29 colon; RXF 393 renal; OVCAR-4 ovarian; M14 melanoma; RPMI-8226 leukemia; DU-145 prostate; HCT-15 colon; OVCAR-8 ovarian; COLO 205 colon.
Holding throughout (assay): DTP human tumour cell line panel, 48 h

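Each compound was tested at five concentrations against cells in 96-well plates for 48 hours. TGI: concentration producing complete growth inhibition.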 A value given as a limit tells only on which side of the number the result lay.

Take `C=C(CCC/C(C)=C/C=C/[C@H](C)CCCc1ccoc1)C[C@@H]1OC(=O)[C@H](C)[C@@H]1O`: the TGI with ACHN renal is 18.4 µM; with HT29 colon, 50 µM; with RXF 393 renal, 14.2 µM; in the assay with OVCAR-4 ovarian, 13.1 µM; with M14 melanoma it was 19.4 µM; in the assay with RPMI-8226 leukemia, 30.2 µM. Further, the TGI was determined as 19 µM with DU-145 prostate, 27.4 µM with HCT-15 colon, 27.5 µM with OVCAR-8 ovarian and 27.4 µM in the assay on COLO 205 colon.

As for `COc1ccc(-n2c(Cn3nnc(-c4cccnc4)n3)nn(C3OC(COC(=O)c4ccccc4)C(OC(=O)c4ccccc4)C3OC(=O)c3ccccc3)c2=S)cc1` (stereo not given), the TGI in the assay on ACHN renal, with HT29 colon, in the assay on RXF 393 renal, with OVCAR-4 ovarian, in the assay with M14 melanoma and in the assay with RPMI-8226 leukemia was above 100 µM each time. Also, the TGI in the assay on DU-145 prostate, with HCT-15 colon, in the assay with OVCAR-8 ovarian and in the assay on COLO 205 colon was above 100 µM each time.

For the compound `C#C[C@]1(O)[C@@H](CO)O[C@@H](n2ccc(N)nc2=O)[C@@H]1O`, the TGI was 0.612 µM with ACHN renal; 2.12 µM with RXF 393 renal; 5.33 µM in the assay with OVCAR-4 ovarian; 3.06 µM with M14 melanoma; 0.192 µM in the assay on RPMI-8226 leukemia; 6.22 µM in the assay with DU-145 prostate. In addition, the TGI is above 100 µM with HCT-15 colon, above 100 µM in the assay with OVCAR-8 ovarian and 0.203 µM in the assay on COLO 205 colon.

`CCc1ccc(Nc2cc(=O)n(C)c(SCc3ccccc3)n2)cc1`: the TGI with ACHN renal was above 100 µM; in the assay with HT29 colon, 60.4 µM; with RXF 393 renal it was above 100 µM; in the assay with M14 melanoma it was above 100 µM; in the assay with DU-145 prostate, above 100 µM; in the assay on HCT-15 colon it was above 100 µM. Besides, the TGI in the assay on OVCAR-8 ovarian is above 100 µM; in the assay on COLO 205 colon, 45.2 µM.

Consider `O=C(Oc1c(Br)cc(Br)cc1C(=O)Oc1ccccc1)C(=O)Oc1c(Br)cc(Br)cc1C(=O)Oc1ccccc1`, for which the TGI in the assay on ACHN renal was above 100 µM; in the assay with HT29 colon it was above 100 µM; in the assay with RXF 393 renal it was 27.2 µM; with M14 melanoma, above 100 µM; in the assay on RPMI-8226 leukemia, 52.9 µM; in the assay with DU-145 prostate, above 100 µM. The TGI was 75.3 µM in the assay with HCT-15 colon, above 100 µM in the assay on OVCAR-8 ovarian and 51.8 µM with COLO 205 colon.

With `CN1c2ccccc2C(=O)NC12CCNCC2`, the TGI in the assay with ACHN renal, in the assay with HT29 colon, in the assay with RXF 393 renal, in the assay with OVCAR-4 ovarian, in the assay with M14 melanoma and in the assay with RPMI-8226 leukemia was above 100 µM throughout. For the same compound, the TGI in the assay on DU-145 prostate, in the assay on OVCAR-8 ovarian and in the assay with COLO 205 colon was above 100 µM in each case.

As to `Cc1c2ccccc2c(C2C3C(=O)N(c4cccc5ccccc45)C(=O)C3ON2Cc2ccc(CC(N)=O)cc2)c2ccccc12` (stereo not given), the TGI is above 50 µM in the assay with ACHN renal; 27 µM in the assay on HT29 colon; 40 µM in the assay with RXF 393 renal; above 50 µM in the assay with OVCAR-4 ovarian; above 50 µM in the assay on M14 melanoma; above 50 µM in the assay with DU-145 prostate. Also, the TGI is above 50 µM in the assay with HCT-15 colon, above 50 µM with OVCAR-8 ovarian and 14.6 µM with COLO 205 colon.

On to `S=C(Nc1ccc2c(c1)oc1ccccc12)c1cccs1`, for which the TGI in the assay on ACHN renal, in the assay with HT29 colon, in the assay on RXF 393 renal, in the assay with OVCAR-4 ovarian, in the assay on M14 melanoma and in the assay on DU-145 prostate was above 100 µM each time. For the same compound, the TGI in the assay with HCT-15 colon, in the assay on OVCAR-8 ovarian and in the assay on COLO 205 colon was above 100 µM each time.

Regarding `Cn1nc(-c2ccccc2)c2c(-c3ccccc3)c3cc(Cl)ccc3nc21`, the TGI in the assay on ACHN renal, in the assay with HT29 colon, in the assay on RXF 393 renal, with OVCAR-4 ovarian, with M14 melanoma and in the assay on RPMI-8226 leukemia was above 100 µM each time. The TGI in the assay on DU-145 prostate was above 100 µM; with HCT-15 colon, above 22.9 µM; with OVCAR-8 ovarian it was above 100 µM.

For the compound `C/C(=N\O)C1CC2C=C(C#N)C1N(Cc1ccccc1)C2` (stereo not given), the TGI with ACHN renal, in the assay with HT29 colon, with RXF 393 renal, in the assay with M14 melanoma, in the assay on RPMI-8226 leukemia and in the assay on DU-145 prostate was above 100 µM in each case. Besides, the TGI in the assay with HCT-15 colon, in the assay on OVCAR-8 ovarian and with COLO 205 colon was above 100 µM each time.

As to `CSC1=C(C#N)C(=O)N(c2ccc(C)cc2)C(=O)C1C#N` (stereo not given), the TGI in the assay with ACHN renal, with HT29 colon, with RXF 393 renal, in the assay with OVCAR-4 ovarian, in the assay on M14 melanoma and in the assay with RPMI-8226 leukemia was above 100 µM in each case. Also, the TGI in the assay with DU-145 prostate, with HCT-15 colon and in the assay on COLO 205 colon was above 100 µM throughout.

`CC(C)OC(=O)NNc1cccc(Cl)c1`: the TGI with ACHN renal, in the assay on HT29 colon, with RXF 393 renal, in the assay with M14 melanoma, in the assay with RPMI-8226 leukemia and in the assay with DU-145 prostate was above 100 µM in each case. Moreover, the TGI in the assay with HCT-15 colon, in the assay with OVCAR-8 ovarian and in the assay with COLO 205 colon was above 100 µM in each case.

Turning to `c1ccc2cc(CNCCCCNCCCNCc3ccc4ccccc4c3)ccc2c1`, the TGI in the assay on ACHN renal came to 2.92 µM; in the assay on HT29 colon it was 0.538 µM; in the assay with RXF 393 renal, 3.16 µM; in the assay with OVCAR-4 ovarian, 3.08 µM; in the assay on M14 melanoma, 3.69 µM; in the assay with RPMI-8226 leukemia it was 0.712 µM. For the same compound, the TGI in the assay on DU-145 prostate was found to be 2.53 µM; in the assay with HCT-15 colon, 1.58 µM; in the assay on OVCAR-8 ovarian, 3.2 µM.

In the case of `Oc1c(Cl)c(Cl)c(O)c(CCNc2nccs2)c1Cl`, the TGI in the assay on ACHN renal was 23.4 µM; with HT29 colon, 51.8 µM; in the assay on RXF 393 renal, 20.3 µM; in the assay on OVCAR-4 ovarian, above 100 µM; in the assay on M14 melanoma it was 36 µM; in the assay on DU-145 prostate, 19.8 µM. Also, the TGI was determined as 31 µM with HCT-15 colon, 47.2 µM in the assay on OVCAR-8 ovarian and 57.9 µM with COLO 205 colon.

With `c1ccc2nn(C3CCCO3)nc2c1` (stereo not given), the TGI in the assay with HT29 colon, in the assay on RXF 393 renal, in the assay with OVCAR-4 ovarian, with M14 melanoma, in the assay on DU-145 prostate and in the assay with HCT-15 colon was above 100 µM each time. For the same compound, the TGI with OVCAR-8 ovarian and in the assay on COLO 205 colon was above 100 µM each time.
